In US20250318521A1, “COMBINATION FOR REDUCING PHYTOTOXICITY OF SYSTEMIC FUNGICIDES IN CROPS AND RELATED METHODS” (UPL Mauritius Limited, priority 2024, published 2025):

Tested on: soyabean crop
Experiment: Evaluation of % damage in soyabean crop using safener (prothioconazole phytotoxicity reduction)
Text: A 480 SC (suspension concentrate) formulation of prothioconazole was used. The application amount of prothioconazole was high in an amount of 350 g ai/ha.
A 480 SC (suspension concentrate) formulation of prothioconazole was used. The application amount of prothioconazole was lower in an amount of 175 g ai/ha.

Substance: mancozeb
- % Damage (prothioconazole 175 g ai/ha (480 SC) + safener 560 g ai/ha, ratio 1:3.2): 15.0%
- % Damage (prothioconazole 175 g ai/ha (480 SC) + safener 1120 g ai/ha, ratio 1:6.4): 18.0%
- % Damage (prothioconazole 175 g ai/ha (480 SC) + safener 1680 g ai/ha, ratio 1:9.6): 11.7%
- % Damage (prothioconazole 350 g ai/ha (480 SC) + safener 560 g ai/ha, ratio 1:1.6): 32.5%
- % Damage (prothioconazole 350 g ai/ha (480 SC) + safener 1120 g ai/ha, ratio 1:3.2): 21.7%
- % Damage (prothioconazole 350 g ai/ha (480 SC) + safener 1680 g ai/ha, ratio 1:4.8): 19.2%
